Laboratory results published in patent US20070191426A1, “Derivatives of 3-aminocarbonylquinoline, pharmaceutical compositions containing them and processes and intermediates for their preparation” (priority 2003, published 2007).

Assays:
PDE5 (human recombinant) = PDE5 (human recombinant) (Homo sapiens, UniProt O76074); assay: Inhibition of PDE5 activity: radioactive Scintillation Proximity Assay (SPA); format: biochemical; settings: SPA assay (all Examples); read-out: PDE5 mean pIC50 (converted)
From the text: Human recombinant PDE5 is disclosed in K. Loughney et al., “Isolation and characterization of cDNAs encoding PDE5A, a human cGMP-binding, cGMP-specific 3′,5′-cyclic nucleotide phosphodiesterase”, Gene, 1998, 216, 139-147.
(§1) Inhibition of PDE3, PDE4B, PDE4D, PDE5 or PDE6 Activity: Radioactive Scintillation Proximity Assay (SPA)
(§2) The ability of compounds to inhibit catalytic activity at PDE4B or 4D (human recombinant), PDE3 (from bovine aorta) PDE5 (human recombinant) or PDE 6 (from bovine retina) was may be determined by Scintillation Proximity Assay (SPA) in 96-well format. Test compounds (preferably as a solution in DMSO, e.g. 2 microlitre (μl) volume) were preincubated at ambient temperature in Wallac Isoplates (code 1450-514) with PDE enzyme in 50 mM Tris-HCl buffer pH 7.5, 8.3 mM MgCl2, 1.7 mM EGTA, 0.05% (w/v) bovine serum albumin for 10-30 minutes. The enzyme concentration was adjusted so that control rates are linear over the assay incubation period. For the PDE3, PDE4B and PDE4D assays […] 3′,5′-cyclic phosphate (Amersham Pharmacia Biotech, code TRK.559 or Amersham Biosciences UK Ltd, Pollards Wood, Chalfont St Giles, Buckinghamshire HP8 4SP, UK) was added to give 0.05 μCi per well and ˜10 nM final concentration. For the PDE5 and PDE6 assays [8-^3H]guanosine 3′,5′-cyclic phosphate (Amersham Pharmacia Biotech , code TRK.392) was added to give 0.05 μCi per well and ˜36 nM final concentration. Plates e.g. containing approx. 100 μl volume of assay mixture were mixed on an orbital shaker for 5 minutes and incubated at ambient temperature for 1 hour. Phosphodiesterase SPA beads (Amersham Pharmacia Biotech, code RPNQ 0150) were added (˜1 mg per well) to terminate the assay. Plates were sealed and shaken and allowed to stand at ambient temperature for 35 minutes to 1 hour to allow the beads to settle. Bound radioactive product was measured using a WALLAC TRILUX 1450 MicroBeta scintillation counter. […] Curves were analyzed using ActivityBase and XLfit (ID Business Solutions Limited, 2 Ocean Court, Surrey Research Park, Guildford, Surrey GU2 7QB, United Kindgom). Results were expressed as pIC50 values.

[1] = target: T1, PDE4B (human recombinant) (Homo sapiens, UniProt Q07343); assay: Inhibition of PDE4B activity: radioactive Scintillation Proximity Assay (SPA); format: biochemical; settings: SPA assay (Examples 1 to 6); read-out: PDE4B mean pIC50 (converted)
T1 construct: made in house
T1 sequence (Q07343 1-564 isoform Q07343-2): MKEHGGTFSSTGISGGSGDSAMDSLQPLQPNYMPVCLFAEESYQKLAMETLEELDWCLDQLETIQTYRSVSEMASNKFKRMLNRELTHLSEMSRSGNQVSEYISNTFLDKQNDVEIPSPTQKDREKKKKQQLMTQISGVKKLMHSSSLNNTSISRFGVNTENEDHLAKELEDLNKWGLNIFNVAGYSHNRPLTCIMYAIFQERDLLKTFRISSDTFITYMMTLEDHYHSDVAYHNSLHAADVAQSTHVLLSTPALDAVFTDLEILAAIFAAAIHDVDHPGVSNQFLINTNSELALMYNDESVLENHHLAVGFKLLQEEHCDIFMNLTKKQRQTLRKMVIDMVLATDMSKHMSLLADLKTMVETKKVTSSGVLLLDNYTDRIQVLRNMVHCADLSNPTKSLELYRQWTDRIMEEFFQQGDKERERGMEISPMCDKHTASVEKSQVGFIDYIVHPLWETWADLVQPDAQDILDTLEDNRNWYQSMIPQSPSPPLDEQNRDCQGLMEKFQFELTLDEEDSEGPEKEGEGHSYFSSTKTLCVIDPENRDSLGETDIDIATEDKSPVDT
From the text: Human recombinant PDE4B, in particular the 2B splice variant thereof (HSPDE4B2B), is disclosed in WO 94/20079 and also in M. M. McLaughlin et al., “A low Km, rolipram-sensitive, cAMP-specific phosphodiesterase from human brain: cloning and expression of cDNA, biochemical characterization of recombinant protein, and tissue distribution of mRNA”, J. Biol. Chem., 1993, 268, 6470-6476. For example, in Example 1 of WO 94/20079, human recombinant PDE4B is described as being expressed in the PDE-deficient yeast Saccharomyces cerevisiae strain GL62, e.g. after induction by addition of 150 uM CuSO4, and 100,000×g supernatant fractions of yeast cell lysates are described for use in the harvesting of PDE4B enzyme.
as §1, §2

IC50 (PDE5 (human recombinant)) | IC50 [1] | SMILES
> 31600 nM | 10 nM | COc1cccc(Nc2c(C(N)=O)cnc3ccc(C(=O)N4CCOCC4)cc23)c1 [Example 1, 4-{[3-(Methyloxy)phenyl]amino}-6-(4-morpholinylcarbonyl)-3-quinolinecarboxamide]
> 31600 nM | 25.1 nM | COc1cccc(Nc2c(C(N)=O)cnc3ccc(C(=O)Nc4ccccc4)cc23)c1 [Example 2, 4-{[3-(methyloxy)phenyl]amino}-N^6-phenyl-3,6-quinolinedicarboxamide]
> 31600 nM | 39.8 nM | COc1cccc(Nc2c(C(N)=O)cnc3ccc(C(=O)NC(C)(C)C)cc23)c1 [Example 3]
> 31600 nM | 501 nM | CNC(=O)c1ccc2ncc(C(N)=O)c(Nc3cccc(OC)c3)c2c1 [Example 6]
